System: muscle protein kinetics
Assay: Protein kinetics in muscle of rabbits infused with amino acid mixtures (surgical stress model)
Type: in vivo, New Zealand white rabbits
Conditions: rabbit, infusion, means ± SEM
Protocol: To investigate the optimal mixture of free amino acids for stimulating net muscle protein synthesis a series of studies in New Zealand white rabbits weighing about 4.5 kg was performed. Net muscle protein balance was quantified by a technique analogous to the one used for human studies as described in Biolo et al, J Parent Enteral Nutr 16:305-315, 1992, which is hereby incorporated by reference, except that leg blood flow was measured by flow probe. This animal model is designed to represent a stress model induced by the surgical procedures needed to collect the samples and therefore is considered to be a good model for a seriously-ill […] patient. Different amino acid mixtures were infused into the rabbits, and the response of muscle quantified.
The groups were as follows:
AA group: A balanced AA solution (10% TRAVASOL®) containing all amino acids (27.3 umol·kg^−1·min^−1)
EAA group: Only essential amino acids (27.3 umol·kg^−1·min^−1)
Leu (25%)+AA group: Leucine was added to the balanced AA solution to account for 25% of total nitrogen and infused at the same total nitrogen group as others (27.3 umol·kg^−1·min^−1)
Leu (35%)+AA group: Same as above, except Leu comprised 35% of total
Leu only: Leucine only at 8.3 umol·kg·min

CC(C)C[C@H](N)C(=O)O [Leu alone, Leucine]
Protein kinetics in muscle: Breakdown: 9.2 ± 0.5 µmol/kg/min
Protein kinetics in muscle: Net balance (*p<0.05 vs control): -2.6 ± 0.3 µmol/kg/min
Protein kinetics in muscle: Synthesis (*p<0.05 vs control): 6.6 ± 0.7 µmol/kg/min
